Measurements: publication PMC9523454 (Pharmacology Research & Perspectives, 2022)
“And” between values parts separate entries of the source, which are not always exact repeats. Equal values may be shown once. No end group written: not given here.

How the values were obtained:
GLP‐1R/GIPR heteromer = type: cell-based, human; conditions: 1 μM ligand; HEK‐293, fixed ratio of GLP‐1R‐Nluc and GIPR‐SYFP2; mean ± SEM, at least three independent experiments
GIPR = conditions: cited from earlier work
GIPR‐Nluc (human) = GIPR‐Nluc (human) (UniProt P48546); test: FRET or BRET
GLP‐1R‐Nluc (human) = GLP‐1R‐Nluc (human) (UniProt P43220); test: FRET or BRET
UniProt P43220, sequence (P43220 24-463): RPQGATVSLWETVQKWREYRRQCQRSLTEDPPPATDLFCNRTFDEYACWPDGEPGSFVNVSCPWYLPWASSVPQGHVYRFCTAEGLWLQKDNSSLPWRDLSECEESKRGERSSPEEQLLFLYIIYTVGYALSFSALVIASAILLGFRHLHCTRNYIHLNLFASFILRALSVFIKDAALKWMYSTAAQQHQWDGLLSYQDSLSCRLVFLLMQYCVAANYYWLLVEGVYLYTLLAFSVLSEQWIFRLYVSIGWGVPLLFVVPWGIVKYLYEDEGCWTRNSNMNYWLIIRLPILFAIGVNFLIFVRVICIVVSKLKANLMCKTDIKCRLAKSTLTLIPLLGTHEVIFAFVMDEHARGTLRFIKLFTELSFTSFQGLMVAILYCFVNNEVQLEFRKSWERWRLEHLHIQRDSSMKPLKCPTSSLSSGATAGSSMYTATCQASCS

UniProt P48546, sequence (P48546 22-466): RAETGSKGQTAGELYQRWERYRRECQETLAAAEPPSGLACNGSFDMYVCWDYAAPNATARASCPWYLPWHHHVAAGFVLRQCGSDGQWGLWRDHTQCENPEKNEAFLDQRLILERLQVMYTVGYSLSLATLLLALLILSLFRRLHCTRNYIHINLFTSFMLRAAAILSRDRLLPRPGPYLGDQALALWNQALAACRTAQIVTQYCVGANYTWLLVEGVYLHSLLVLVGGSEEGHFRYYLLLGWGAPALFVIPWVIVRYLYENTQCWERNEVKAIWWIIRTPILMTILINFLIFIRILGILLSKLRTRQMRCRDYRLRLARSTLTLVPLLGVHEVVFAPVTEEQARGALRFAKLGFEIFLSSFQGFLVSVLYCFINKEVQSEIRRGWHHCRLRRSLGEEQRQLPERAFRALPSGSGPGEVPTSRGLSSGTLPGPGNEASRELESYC

| pEC50 of the agonist GLP-1 for recruitment (GLP‐1R‐Nluc (human)) | Substance | Change in BRET ratio vs non‐stimulated cells (GLP‐1R/GIPR heteromer) | other results |
| --- | --- | --- | --- |
| – | (Pro3)GIP: previously reported to be a GIPR antagonist but subsequently shown to be a low potency GIPR agonist; custom synthesized (YAPGTFISDYSIAMDKIHQQDFVNWLLAQKGKKNDWKHNITQ; Gastric inhibitory polypeptide; UniProt P09681 52-93, looked up, variant E3P) | no effect on BRET ratio | Activity at GIPR (GIPR): low potency GIPR agonist |
| – | GLP‐1 (9‐36): GLP‐1 metabolite, metabolic breakdown product of GLP‐1 (EGTFTSDVSSYLEGQAAKEFIAWLVKGR-NH2; UniProt P01275 100-127, looked up, fragment) | significantly increased the BRET ratio (p < .001) | – |
| 7.8 -log EC50/M and 7.7 -log EC50/M and 7.9 -log EC50/M | NES‐Venus‐mGαq | – | pEC50 of the agonist GIP for recruitment (GIPR‐Nluc (human)): 8 -log EC50/M and 7.6 -log EC50/M and 7.8 -log EC50/M |
| 7.8 -log EC50/M and 7.5 -log EC50/M and 7.7 -log EC50/M | NES‐Venus‐mGαs | – | – |
| – | Oxyntomodulin: posttranslational product of proglucagon and an endogenous dual GLP‐1R/glucagon receptor agonist (HSQGTFTSDYSKYLDSRRAQDFVQWLMNTKRNRNNIA; Oxyntomodulin; UniProt P01275 53-89, looked up) | no effect on BRET ratio | – |
| – | exendin‐4 (9–39) | no significant effect on BRET ratio | – |
